Reference: patent US20090264355A1, “METHODS TO TREAT ALZHEIMER'S DISEASE OR OTHER DISORDERS MEDIATED BY AMYLOID-BETA ACCUMULATION IN A SUBJECT” (WASHINGTON UNIVERSITY IN ST. LOUIS, priority 2005, published 2009)

Tests used:
LRP1 = LRP1 expression in cerebral capillaries by Western blot after acute inhibition of Pgp; assay type: in vivo, APPsw mice; details: ten hours after treatment, 80 mg/kg intravenous
Method: Hippocampal tissue from 12 month old APPsw, Pgp-wild type and APPsw, Pgp-null littermates was homogenized in 150 mM NaCl, 50 mM Tris pH 7.4, 0.5% deoxycholic acid, 0.1% SDS, 1% Triton X-100, 2.5 mM EDTA, and protease inhibitors. Western blotting for MRP1, LRP1, and RAGE were performed using 3-8% NuPAGE Tris-Acetate gels (Invitrogen) with thirty micrograms of protein loaded per lane. Cerebral microvessels from 2-3 month old PGP-wildtype (FVB wild type) and Pgp-null mice were isolated as described (Zlokovic, B. V., et al. 1993. J. Biol. Chem. 268:8019-8025.). […] Bands were detected with Lumigen-TMA6 (Amersham Biosciences) and captured digitally using the Kodak ImageStation 440CF. The relative absorbance of each band was detected by densitometry and normalized to protein loaded in each lane. […]
Acute inhibition of Pgp activity was assessed using APPsw mice (also called Tg2576). […] Using in vivo microdialysis in awake, freely moving mice (Cirrito, J. R., et al. 2003. J. Neurosci. 23:8844-8853; DeMattos, R. B., et al. 2004. Neuron. 41:193-202), a basal concentration of ISF Aβ was determined over 5 hours. Mice were then treated with either vehicle or XR9576 and ISF Aβ levels were assessed for an additional 10 hours (FIG. 2A). […] Ten hours after treatment with either vehicle or XR9576, cerebral microvessels were also isolated and assessed for levels of LRP1 by Western blot.

Pgp [1] = molecular target: T1, Pgp (Mus musculus, UniProt P21447); test: ISF Aβ in vivo microdialysis after acute pharmacologic inhibition of Pgp; parameters: species or system APPsw mice; details: 80 mg/kg intravenous
T1 construct: from tissue; host or cells: brain (blood-brain barrier) of living 3 month old APPsw+/- (Tg2576) mice
Method: In vivo microdialysis to assess brain ISF Aβ1-x in the hippocampus of awake, freely moving 3 month old APPsw^+/− mice was performed exactly as described (Cirrito, J. R., et al. 2003. J. Neurosci. 23:8844-8853; DeMattos, R. B., et al. 2004. Neuron. 41:193-202). Aβ1-x represents all Aβ peptides beginning at amino acid 1 of the N-terminus with the C-terminus being variable but predominantly either ending at position 40 or 42. An initial 4-6 hour recovery period elapsed after guide implantation and probe insertion to allow for tissue recovery, followed by collection of microdialysis samples for 5 hours at one-hour intervals at a flow rate of 1.5 μl/min to establish basal level of ISF Aβ. […] Concentrations of ISF Aβ1-x for each mouse were expressed as the percentage of basal level for each mouse (mean of 5 hours prior to treatment).
Acute inhibition of Pgp activity was assessed using APPsw mice (also called Tg2576). […] Using in vivo microdialysis in awake, freely moving mice (Cirrito, J. R., et al. 2003. J. Neurosci. 23:8844-8853; DeMattos, R. B., et al. 2004. Neuron. 41:193-202), a basal concentration of ISF Aβ was determined over 5 hours. Mice were then treated with either vehicle or XR9576 and ISF Aβ levels were assessed for an additional 10 hours (FIG. 2A). […]

Pgp [2] = test: [99mTc]Sestamibi transport and biodistribution; assay type: in vivo, mice; details: for brain content of the tracer: five minutes after intravenous bolus injection (2 μCi)
Method: The radiopharmaceutical [^99mTc]Sestamibi (Bristol-Myers Squibb Co.) was prepared from a one-step commercial kit formulation by addition of [^99mTc]TcO4^− according to the manufacturer's recommendations (25). […] Data are expressed as percent injected dose per gram tissue [(μCi [^99mTc]Sestamibi in tissue) (μCi injected [^99mTc]Sestamibi)^−1(g tissue)^−1×100] and are reported as mean±SEM (n=3-4) or ±range (n=2).
APPsw^+/− mice were bred to mdr1a/b^−/− animals to produce littermate mice that were positive for the APPsw transgene and either Pgp-null (APPsw^+/−, mdr1a/b^−/−) or Pgp wild type (APPsw^+/−, mdr1a/b^+/+). […] Normally, [^99mTc]Sestamibi is readily transported out of the brain by Pgp.

Pgp [3] = test: BBB transport: clearance of radiotracers from the brain after intracerebral microinjection; details: both groups (Pgp-wild type and Pgp-null); 30 minutes; co-injected with [125I]Aβ42
Method: Transport of human [^125I]Aβ40 or [^125I]Aβ42 across the BBB and the associated calculations were performed as described (DeMattos, R. B., et al. 2002. Science. 295:2264-2267; Zlokovic, B. V., et al. 2000. Nat. Med. 6:718-719.). Briefly, a guide cannula was implanted stereotaxically into the right caudate-putamen of anesthetized mice at coordinates 0.9 mm anterior to bregma, 1.9 mm lateral, and 2.9 mm below the dura. Animals were allowed to recover after surgery prior to radiotracer studies. […] Twelve nanomoles of [^14C]inulin and either [^125I]Aβ40 or [^125I]Aβ42 was co-injected in a volume of 0.5 μl over 5 minutes using an ultra micropump (World Precision Instruments). The specific activities of peptide were in the range of 80-120 μCi/μg. The percentage of radioactivity remaining in the brain after microinjection was determined as % recovery in brain=100×(Nb/Ni), where Nb is the radioactivity remaining in the brain at the end of the experiment and Ni is the radioactivity microinjected into brain ISF, i.e., the disintegrations per minute for [^14C]inulin and the counts per minute for tricholoracetic acid-precipitable [^125I]radioactivity (intact Aβ). The percentage of Aβ cleared through the BBB was calculated as [(1−Nb(Aβ)/Ni(Aβ))−(1−Nb(inulin)/Ni(inulin))]×100, using a standard time of 30 min. […]

T1 sequence (P21447 whole entry): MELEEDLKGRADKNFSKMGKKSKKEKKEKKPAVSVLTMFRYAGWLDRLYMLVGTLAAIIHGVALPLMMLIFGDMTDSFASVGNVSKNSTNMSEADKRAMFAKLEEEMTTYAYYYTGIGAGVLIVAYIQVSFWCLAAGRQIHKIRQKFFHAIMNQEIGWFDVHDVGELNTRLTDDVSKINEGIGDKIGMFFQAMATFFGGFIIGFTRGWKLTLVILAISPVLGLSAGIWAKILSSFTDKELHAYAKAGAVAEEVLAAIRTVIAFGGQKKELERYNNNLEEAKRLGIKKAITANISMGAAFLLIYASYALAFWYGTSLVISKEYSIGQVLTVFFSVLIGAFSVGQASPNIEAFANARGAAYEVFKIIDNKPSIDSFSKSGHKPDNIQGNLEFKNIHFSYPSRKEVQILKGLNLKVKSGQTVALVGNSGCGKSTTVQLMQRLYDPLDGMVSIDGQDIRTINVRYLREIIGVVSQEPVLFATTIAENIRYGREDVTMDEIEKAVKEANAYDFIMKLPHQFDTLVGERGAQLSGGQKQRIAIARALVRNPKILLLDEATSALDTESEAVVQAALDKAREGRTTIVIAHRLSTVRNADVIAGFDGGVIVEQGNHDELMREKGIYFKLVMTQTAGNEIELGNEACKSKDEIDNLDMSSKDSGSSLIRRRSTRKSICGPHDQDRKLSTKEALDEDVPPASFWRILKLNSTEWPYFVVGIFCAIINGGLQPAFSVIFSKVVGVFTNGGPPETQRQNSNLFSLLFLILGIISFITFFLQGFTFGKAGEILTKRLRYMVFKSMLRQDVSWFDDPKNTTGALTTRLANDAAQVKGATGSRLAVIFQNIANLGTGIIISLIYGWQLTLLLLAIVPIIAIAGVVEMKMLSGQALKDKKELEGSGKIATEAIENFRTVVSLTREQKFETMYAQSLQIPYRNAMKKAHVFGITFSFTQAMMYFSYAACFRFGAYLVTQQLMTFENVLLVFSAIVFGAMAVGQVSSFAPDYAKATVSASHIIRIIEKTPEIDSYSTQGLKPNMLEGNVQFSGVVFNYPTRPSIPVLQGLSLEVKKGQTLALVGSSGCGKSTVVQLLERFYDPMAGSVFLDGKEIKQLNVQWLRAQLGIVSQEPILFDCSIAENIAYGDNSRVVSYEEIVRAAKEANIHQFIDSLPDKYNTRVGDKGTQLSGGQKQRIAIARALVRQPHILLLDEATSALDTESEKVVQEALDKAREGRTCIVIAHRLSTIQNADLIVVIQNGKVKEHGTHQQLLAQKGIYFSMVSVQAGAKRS

COc1cc2c(cc1OC)CN(CCc1ccc(NC(=O)c3cc(OC)c(OC)cc3NC(=O)c3cnc4ccccc4c3)cc1)CC2 [XR9576]
levels of LRP1 in cerebral vessels (LRP1): did not change | increase of ISF Aβ levels compared to vehicle treated mice (Pgp [1]; eight hours after treatment): ~30% | ISF exchangeable Aβ1-x (eAβ1-x) levels, % of control-treated (vehicle-treated) mice (Pgp [1]; from eight hours after administration, hippocampus, 3 month old APPsw mice): 127.7±3.4% | Pgp function at the BBB as determined with [99mTc]Sestamibi analysis (Pgp [2]; intravenous, 80 mg/kg, data not shown): inhibits Pgp function at the BBB

[C-]#[N+]CC(C)(C)OC.[C-]#[N+]CC(C)(C)OC.[C-]#[N+]CC(C)(C)OC.[C-]#[N+]CC(C)(C)OC.[C-]#[N+]CC(C)(C)OC.[C-]#[N+]CC(C)(C)OC.[Tc] [[^99mTc]Sestamibi]
increase in brain penetration in Pgp-null mice versus wild type (Pgp [2]; FVB strain, without APPsw transgene): approximately 3.5 fold | brain content of the tracer (Pgp [2]; Pgp-null mice (FVB)): 0.85±0.14 % ID/g | increase in brain penetration in Pgp-null animals compared with those expressing Pgp (Pgp [2]; animals expressing the APPsw+/- transgene): 3.5 fold | brain content of the tracer (Pgp [2]; wild type controls (FVB)): 0.22±0.02 % injected dose (ID)/gram (g) | blood content of the tracer, difference between the two strains (Pgp [2]; wild type versus Pgp-null, five minutes post-injection): no difference

inulin [[^14C]inulin]
brain recovery (retained) (Pgp [3]): Approximately 85%
